“And” between values parts separate entries of the source, which are not always exact repeats. Equal entries are not always repeated.
Legend:
Healthy human volunteers = tested on: Healthy human volunteers; set-up: method as in PMID 9029058, PMID 15458014; conditions: up to 100 mg orally and 300 mg transdermally; cited from earlier work
[1] = set-up: method as in PMID 9029058; conditions: human, after a single 100 mg oral dose of NMP; cited from earlier work
BET-bromodomains = tested on: BET-bromodomains; set-up: method as in PMID 26047594, PMID 24813887; conditions: suppression of LPS-induced TNFα-secretion, downregulation of cMYC expression; cited from earlier work
[2] = tested on: relapsed/refractory multiple myeloma (RR–MM); experiment: Phase 1 trial of oral NMP: efficacy (IMWG response, progression-free and overall survival); type: in vivo, human
Procedure: This was a phase 1, open-label dose-escalation trial of orally administered NMP in patients with relapsed/refractory multiple myeloma (RR–MM). Eligible patients were ≥ 18 years old with Eastern Cooperative Oncology Group (ECOG) < 2 and histologically confirmed plasma cell myeloma defined by WHO 2008 criteria with measurable disease (defined by serum M-protein > 5 g/L, urine M-protein > 200 mg/24 h, involved serum free light chain > 100 mg/L or measurable soft tissue plasmacytoma). Patients were required to have relapsed following prior treatment and/or be refractory to or intolerant of both bortezomib and lenalidomide and must have undergone autologous stem cell transplant (unless deemed ineligible at investigator discretion). Exclusion criteria included: central nervous system involvement, active second malignancy within two years, uncontrolled medical conditions contraindicating an investigational agent due to inadequate organ function and concomitant exposure to anti-myeloma therapies.
The primary study endpoint was to determine the MTD of orally administered NMP in patients with RR–MM. Secondary endpoints included safety, PK analyses, IMWG defined response rate and exploratory immunological biomarkers. Adverse events were defined according to Common Terminology Criteria for Adverse Events (CTCAE version 4.03). Haematological DLTs were defined as grade 4 neutropenia unresponsive to G-CSF, grade 4 thrombocytopenia and febrile neutropenia. Non-haematological DLTs were grade 3 or higher and considered probably related to study drug and not attributable to disease progression and those resulting treatment delays greater than two weeks due to drug-related toxicity. Self-limited (< 24 h) gastrointestinal side effects (e.g. nausea, diarrhoea) responding to supportive measures were not classified as DLTs.
Pharmaceutical grade NMP stock solution (Ashland, Columbus, OH, USA) was diluted in ORA SWEET® SF (Medical Flavouring Systems, Vic, Australia) oral syrup vehicle and sterile water to a final concentration of 50 mg/mL and dispensed weekly in amber glass bottles for storage a room temperature. […] Intra-patient dose escalation at 100 mg increments was also permitted whereby the MTD had not been determined and the patient tolerated two consecutive cycles without DLT or an objective disease response. […]
The study was planned to recruit up to 20 patients, 15 in the dose finding cohort and five as a dose expansion. […] Time to progression was calculated from the first day of treatment to progression using the Kaplan–Meier method. Flow cytometry and gene expression data were analysed using GraphPad Prism (version 6.0; GraphPad Software, San Diego, CA). Data were analysed using Wilcoxon’s matched pairs signed rank test compared with baseline samples (*p < 0.05).

CN1CCCC1=O [NMP, N-methyl-2-pyrrolidone]
acute adverse effects after a single dose (Healthy human volunteers): no acute adverse effects
amount found in urine [1]: 0.8%
concentration at which NMP phenocopies effects of BET-inhibitors (BET-bromodomains): 1 to 10 mM
Median overall survival ([2]; 13 RR–MM patients, 95% CI 9.7– > 44.5 months, median follow-up 43.5 months): 33.1 months and 33 months
Median progression-free survival ([2]; 13 RR–MM patients, range 29–539 days): 57 days
IMWG objective disease response (partial response or better), ORR ([2]; 13 patients, 95% CI 0–25%): 0%
best response of stable disease (SD), patients ([2]; nine of 13 patients, 95% CI 39–91%): 69%

Reference: PMC9884426, “A phase 1 clinical trial of the repurposable acetyllysine mimetic, n-methyl-2-pyrrolidone (NMP), in relapsed or refractory multiple myeloma” (Clinical Epigenetics, 2023)
